Experimental data published in article PMC9944328 (Nature Communications, 2023).
Read-outs that look alike come from different tables or passages of the source.

Tested on: SSTR2 mutants
Assay: SSTRs Gi-mediated cAMP inhibition, GloSensor, HEK293, 5 μM forskolin, 15 min room temperature (SSTR2 mutants)
Type: cell-based, human
Description: The levels of the intracellular 3′, 5′-cyclic AMP (cAMP) were measured by the GloSensor cAMP assay (Promega) as described in the previous studies[28],[41] which has been widely used. The human full-length SSTRs and mutants were cloned into the pcDNA3.1+ vector with a HA signal sequence followed by a Flag tag at the N-terminus. HEK293 cells (ATCC, CRL-1573) were seeded into 6-well microplates at a density of 1.0 × 10^6 cells/well and cultured for 24 h at 37 °C with 5% CO2. Cells were then co-transfected with SSTR wild-type or mutants and GloSensor plasmids. After 24 h of transfection, the cells were dissociated with TrypLE™ Express Enzyme (1X) (Thermo Fisher Scientific) and collected by centrifugation at 500 × g for 5 min. Then the collected cells were suspended in Hank’s balanced salt solution [HBSS (Thermo Fisher Scientific)] supplemented with […] (YEASEN), and then the suspension cells were seeded into 96-well plates with 90 μl/well. After incubating at room temperature for 40 min, 5 μM forskolin and ligands diluted in HBSS were added to each well and the plates were incubated at room temperature for 15 min. […] were measured using the Synergy H1 microplate reader (BioTek) and the data presented are means of at least three independent experiments.

[1] = cAMP inhibition best-fit, F127A-1
[2] = cAMP inhibition best-fit, F127A-2
[3] = cAMP inhibition best-fit, F127A-3
[4] = cAMP inhibition best-fit, I130A-1
[5] = cAMP inhibition best-fit, I130A-2
[6] = cAMP inhibition best-fit, I130A-3
[7] = cAMP inhibition best-fit, Q102A-1
[8] = cAMP inhibition best-fit, Q102A-2
[9] = cAMP inhibition best-fit, Q102A-3
[10] = cAMP inhibition best-fit, V103A-1
[11] = cAMP inhibition best-fit, V103A-2
[12] = cAMP inhibition best-fit, V103A-3

**Q.** Which results are given for `N#Cc1cccc(-c2ccc3ncc(-c4cc(F)cc(F)c4)c(N4CCC(N)CC4)c3c2)c1O` [paltusotine]?
**A.** LogEC50 (best-fit value), cAMP inhibition (Y302A-1 (run 1)): -7.774; Span (best-fit value), cAMP inhibition (Y302A-1 (run 1)): 45.84; Top (best-fit value), cAMP inhibition (Y302A-1 (run 1)): 51.54; Bottom (best-fit value), cAMP inhibition (Y302A-2 (run 2)): 6.053; LogEC50 (best-fit value), cAMP inhibition (Y302A-2 (run 2)): -7.903; Span (best-fit value), cAMP inhibition (Y302A-2 (run 2)): 53.55; Top (best-fit value), cAMP inhibition (Y302A-2 (run 2)): 59.6; Bottom (best-fit value), cAMP inhibition (Y302A-3 (run 3)): 6.125; LogEC50 (best-fit value), cAMP inhibition (Y302A-3 (run 3)): -8.216; Span (best-fit value), cAMP inhibition (Y302A-3 (run 3)): 50.13; Top (best-fit value), cAMP inhibition (Y302A-3 (run 3)): 56.25; Bottom [1]: 3.363; EC50 [1]: 0.994 nM; LogEC50 [1]: -9.003; Span [1]: 99.71; Top [1]: 103.1; Bottom [2]: -15.5; EC50 [2]: 0.816 nM; LogEC50 [2]: -9.089; Span [2]: 125.3; Top [2]: 109.8; Bottom [3]: 3.745; EC50 [3]: 0.665 nM; LogEC50 [3]: -9.177; Span [3]: 105.4; Top [3]: 109.1; Bottom [4]: 11.53; EC50 [4]: 17.8 nM; LogEC50 [4]: -7.749; Span [4]: 105; Top [4]: 116.5; Bottom [5]: 16.26; EC50 [5]: 15.1 nM; LogEC50 [5]: -7.822; Span [5]: 108.4; Top [5]: 124.7; Bottom [6]: 6.76; EC50 [6]: 23.9 nM; LogEC50 [6]: -7.621; Span [6]: 101.4; Top [6]: 108.2; EC50 [7]: 43.6 nM; LogEC50 [7]: -7.36; Span [7]: 102.2; Top [7]: 104; EC50 [8]: 28.2 nM; LogEC50 [8]: -7.55; Span [8]: 100.8; Top [8]: 101.3; EC50 [9]: 21.3 nM; LogEC50 [9]: -7.671; Span [9]: 85.31; Top [9]: 86.48; Bottom [10]: 9.955; EC50 [10]: 90.2 nM; LogEC50 [10]: -7.045; Span [10]: 84.48; Top [10]: 94.43; Bottom [11]: -12.27; EC50 [11]: 7.12 nM; LogEC50 [11]: -8.147; Span [11]: 105.2; Top [11]: 92.96; Bottom [12]: 15.94; EC50 [12]: 1.5 nM; LogEC50 [12]: -8.823; Span [12]: 58.67; Top [12]: 74.61; EC50 (read-out: EC50 (best-fit value), cAMP inhibition, D295A-1 (run 1)): 16 nM; EC50 (read-out: EC50 (best-fit value), cAMP inhibition, D295A-2 (run 2)): 15.9 nM; EC50 (read-out: EC50 (best-fit value), cAMP inhibition, D295A-3 (run 3)): 18.1 nM; EC50 (read-out: EC50 (best-fit value), cAMP inhibition, F272A-1 (run 1)): 17.7 nM; EC50 (read-out: EC50 (best-fit value), cAMP inhibition, F272A-2 (run 2)): 26.7 nM; EC50 (read-out: EC50 (best-fit value), cAMP inhibition, F272A-3 (run 3)): 145 nM; EC50 (read-out: EC50 (best-fit value), cAMP inhibition, F294A-1 (run 1)): 3.57 nM; EC50 (read-out: EC50 (best-fit value), cAMP inhibition, F294A-2 (run 2)): 4.21 nM; EC50 (read-out: EC50 (best-fit value), cAMP inhibition, F294A-3 (run 3)): 0.15 nM; EC50 (read-out: EC50 (best-fit value), cAMP inhibition, K291A-1 (run 1)): 4.34 nM; EC50 (read-out: EC50 (best-fit value), cAMP inhibition, K291A-2 (run 2)): 1.48 nM; EC50 (read-out: EC50 (best-fit value), cAMP inhibition, K291A-3 (run 3)): 6.95 nM; EC50 (read-out: EC50 (best-fit value), cAMP inhibition, N276A-1 (run 1)): 0.993 nM; EC50 (read-out: EC50 (best-fit value), cAMP inhibition, N276A-2 (run 2)): 2.19 nM; EC50 (read-out: EC50 (best-fit value), cAMP inhibition, N276A-3 (run 3)): 1.77 nM; EC50 (read-out: EC50 (best-fit value), cAMP inhibition, Y302A-1 (run 1)): 16.8 nM; EC50 (read-out: EC50 (best-fit value), cAMP inhibition, Y302A-2 (run 2)): 12.5 nM; EC50 (read-out: EC50 (best-fit value), cAMP inhibition, Y302A-3 (run 3)): 6.08 nM; EC50 (read-out: EC50 (best-fit value), F208A-1 (run 1)): 14.9 nM; EC50 (read-out: EC50 (best-fit value), F208A-2 (run 2)): 98.5 nM; EC50 (read-out: EC50 (best-fit value), F208A-3 (run 3)): 79.3 nM; EC50 (read-out: EC50 (best-fit value), F265A-1 (run 1)): 11.3 nM; EC50 (read-out: EC50 (best-fit value), F265A-2 (run 2)): 14.7 nM; EC50 (read-out: EC50 (best-fit value), F265A-3 (run 3)): 9.82 nM; EC50 (read-out: EC50 (best-fit value), P220A-1 (run 1)): 3.5 nM; EC50 (read-out: EC50 (best-fit value), P220A-2 (run 2)): 3.09 nM; EC50 (read-out: EC50 (best-fit value), P220A-3 (run 3)): 3.08 nM; EC50 (read-out: EC50 (best-fit value), W269A-1 (run 1)): 0.601 nM; EC50 (read-out: EC50 (best-fit value), W269A-2 (run 2)): 0.503 nM; EC50 (read-out: EC50 (best-fit value), W269A-3 (run 3)): 0.604 nM; EC50 (read-out: EC50 (best-fit value), Y205A-1 (run 1)): 0.344 nM; EC50 (read-out: EC50 (best-fit value), Y205A-2 (run 2)): 0.915 nM; EC50 (read-out: EC50 (best-fit value), Y205A-3 (run 3)): 0.18 nM
